Data: patent publication US20170253601A1, “Substituted Pyrrolidine Compounds” (EPIZYME, INC., priority 2014, published 2017)

molecular target: T1, SMYD2 (Homo sapiens, UniProt Q9NRG4); test: SMYD2 Biochemical Assay (3H-SAM, biotinylated peptide substrate, Flashplate); conditions: IC50 values are an average of n = 1 to n = 50; read-out: SMYD2 Biochem IC50 (μM)*
T1 construct: Full length SMYD2 (NP 064582.2) was cloned; His6 (N, cleaved yes); FLAG (N); made in house; host or cells: Sf9 insect cells
Outline: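 Full-length His/FLAG-tagged SMYD2 expressed in Sf9 cells with tag cleaved, 1.5 nM, pre-incubated 30 min at room temperature with compound, then 10 nM 3H-SAM and 60 nM biotinylated peptide added. Buffer 20 mM Bicine pH 7.6, 1 mM TCEP, 0.005% BSG, 0.002% Tween20, 2% DMSO. Stopped with 600 uM cold SAM; 3H-peptide captured on streptavidin Flashplate; IC50 by curve fit.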

T1 sequence (Q9NRG4 whole entry): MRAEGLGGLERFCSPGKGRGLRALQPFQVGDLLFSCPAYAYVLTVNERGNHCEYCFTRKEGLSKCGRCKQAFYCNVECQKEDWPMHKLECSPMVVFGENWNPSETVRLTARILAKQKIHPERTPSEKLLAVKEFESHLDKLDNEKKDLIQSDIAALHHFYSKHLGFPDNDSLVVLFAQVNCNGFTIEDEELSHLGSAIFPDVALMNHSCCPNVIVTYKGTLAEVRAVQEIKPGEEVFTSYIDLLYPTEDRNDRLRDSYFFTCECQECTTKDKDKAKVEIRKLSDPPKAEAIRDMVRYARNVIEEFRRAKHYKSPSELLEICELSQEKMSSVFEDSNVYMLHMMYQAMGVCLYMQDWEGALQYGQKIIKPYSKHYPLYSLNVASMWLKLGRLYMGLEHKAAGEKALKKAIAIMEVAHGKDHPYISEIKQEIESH

SMILES	IC50 [µM]
CN1C[C@H](NC(=O)c2cc(C3CC3)on2)[C@@H](C2CC2)C1 (racemic) [compound 141, (±)-trans-5-cyclopropyl-N-[4-cyclopropyl-1-methylpyrrolidin-3-yl]-1,2-oxazole-3-carboxamide]	> 50
C[C@@H]1CN(Cc2ccccc2Cl)C[C@H]1NC(=O)c1cc(C2CC2)on1 (racemic) [compound 142, (±)-trans-N-1-[(2-chlorophenyl)methyl]-4-methylpyrrolidin-3-yl]-5-cyclopropyl-1,2-oxazole-3-carboxamide]	27.5
CC(C)CCN1C[C@@H](C)[C@H](NC(=O)c2cc(C3CC3)on2)C1 (racemic) [compound 143, (±)-trans-5-cyclopropyl-N-[4-methyl-1-(3-methylbutyl)pyrrolidin-3-yl]-1,2-oxazole-3-carboxamide]	> 50
CN1C[C@H](NC(=O)c2cc(C3CC3)on2)[C@@H](C(C)(C)C)C1 (racemic) [compound 144, (±)-trans-N-[4-tert-butyl-1-methylpyrrolidin-3-yl]-5-cyclopropyl-1,2-oxazole-3-carboxamide]	> 50
CC(C)N1C[C@H](NC(=O)c2cc(C3CC3)on2)[C@@H](C(C)(C)C)C1 (racemic) [compound 146, (±)-trans-N-[4-tert-butyl-1-(propan-2-yl)pyrrolidin-3-yl]-5-cyclopropyl-1,2-oxazole-3-carboxamide]	> 50
C[C@@H]1CN(Cc2ccc(N(C)C)cc2)C[C@H]1NC(=O)c1cc(C2CC2)on1 (racemic) [compound 148, (±)-trans-5-cyclopropyl-N-[1-{[4-(dimethyl-amino)phenyl]methyl}-4-methylpyrrolidin-3-yl]-1,2-oxazole-3-carboxamide]	37
COc1ccc(CN2C[C@@H](C)[C@H](NC(=O)c3cc(C4CC4)on3)C2)cc1 (racemic) [compound 149, (±)-trans-5-cyclopropyl-N-[1-[(4-methoxy-phenyl)methyl]-4-methylpyrrolidin-3-yl]-1,2-oxazole-3-carboxamide]	45.6
CCC[C@H]1CN(C)C[C@@H]1NC(=O)c1cc(C2CC2)on1 (racemic) [compound 150, (±)-trans-5-cyclopropyl-N-[1-methyl-4-propylpyrrolidin-3-yl]-1,2-oxazole-3-carboxamide]	44.9
CCC[C@H]1CN(C(C)C)C[C@@H]1NC(=O)c1cc(C2CC2)on1 (racemic) [compound 151, (±)-trans-5-cyclopropyl-N-[1-(propan-2-yl)-4-propylpyrrolidin-3-yl]-1,2-oxazole-3-carboxamide]	> 50
C[C@@H]1CN(Cc2cc3ccccc3s2)C[C@H]1NC(=O)c1cc(C2CC2)on1 (racemic) [compound 152, (±)-trans-N-[1-(1-benzothiophen-2-ylmethyl)-4-methyl-pyrrolidin-3-yl]-5-cyclopropyl-1,2-oxazole-3-carboxamide]	> 50
CC(C)C[C@H]1CN(C)C[C@@H]1NC(=O)c1cc(C2CC2)on1 (racemic) [compound 153, (±)-trans-5-cyclopropyl-N-[1-methyl-4-(2-methylpropyl)pyrrolidin-3-yl]-1,2-oxazole-3-carboxamide]	39.1
CC(C)C[C@H]1CN(C(C)C)C[C@@H]1NC(=O)c1cc(C2CC2)on1 (racemic) [compound 154, (±)-trans-5-cyclopropyl-N-[4-(2-methylpropyl)-1-(propan-2-yl)pyrrolidin-3-yl]-1,2-oxazole-3-carboxamide]	> 50
C[C@H]1CN(CC2CCOC2)C[C@H]1NC(=O)c1cc(C2CC2)on1 (mixture of isomers) [compound 155, (±)-cis-5-cyclopropyl-N-[4-methyl-1-(oxolan-3-ylmethyl)pyrrolidin-3-yl]-1,2-oxazole-3-carboxamide]	4.49
C[C@@H]1CN(CC2CCC2)C[C@H]1NC(=O)c1cc(C2CC2)on1 (racemic) [compound 156, (±)-trans-N-[1-(cyclobutyl-methyl)-4-methylpyrrolidin-3-yl]-5-cyclopropyl-1,2-oxazole-3-carboxamide]	> 50
